Laboratory results: ChEMBL document CHEMBL3596148, “Meridianin derivatives as potent Dyrk1A inhibitors and neuroprotective agents” (Bioorg Med Chem Lett, 2015)

Tests used:
[1] = Cytotoxicity against human SH-SY5Y cells assessed as cell viability at 30 uM after 24 hrs by MTT assay relative to control; format: cell-based; settings: read-out: Activity
[2] = target: Insulin receptor (Homo sapiens) (UniProt P06213); assay: Inhibition of IR (unknown origin) at 0.5 uM relative to control
[3] = target: AMP-activated protein kinase, AMPK (Homo sapiens) (UniProt P54646+O43741+P54619+Q9UGJ0+Q9Y478+Q13131+Q9UGI9); assay: Inhibition of AMPK (unknown origin) at 0.5 uM relative to control; format: protein-complex assay
[4] = target: Aurora kinase B (Homo sapiens) (UniProt Q96GD4); assay: Inhibition of Aurora B (unknown origin) at 0.5 uM relative to control
[5] = target: Protein kinase C alpha type (Homo sapiens) (UniProt P17252); assay: Inhibition of PKCalpha (unknown origin) at 0.5 uM relative to control
[6] = target: Cyclin-dependent kinase 9 (Homo sapiens) (UniProt P50750); assay: Inhibition of CDK9 (unknown origin) at 0.5 uM relative to control
[7] = target: RAC-alpha serine/threonine-protein kinase (Homo sapiens) (UniProt P31749); assay: Inhibition of PKBalpha (unknown origin) at 0.5 uM relative to control
[8] = target: Glycogen synthase kinase-3 beta (Homo sapiens) (UniProt P49841); assay: Inhibition of GSK3beta (unknown origin) at 0.5 uM relative to control
[9] = target: Cyclin-dependent kinase 2 (Homo sapiens) (UniProt P24941); assay: Inhibition of CDK2 (unknown origin) at 0.5 uM relative to control
[10] = target: T1, Inhibitor of nuclear factor kappa-B kinase subunit beta (Homo sapiens) (UniProt O14920); assay: Inhibition of IKKbeta (unknown origin) at 0.5 uM relative to control
T1 sequence (whole entry): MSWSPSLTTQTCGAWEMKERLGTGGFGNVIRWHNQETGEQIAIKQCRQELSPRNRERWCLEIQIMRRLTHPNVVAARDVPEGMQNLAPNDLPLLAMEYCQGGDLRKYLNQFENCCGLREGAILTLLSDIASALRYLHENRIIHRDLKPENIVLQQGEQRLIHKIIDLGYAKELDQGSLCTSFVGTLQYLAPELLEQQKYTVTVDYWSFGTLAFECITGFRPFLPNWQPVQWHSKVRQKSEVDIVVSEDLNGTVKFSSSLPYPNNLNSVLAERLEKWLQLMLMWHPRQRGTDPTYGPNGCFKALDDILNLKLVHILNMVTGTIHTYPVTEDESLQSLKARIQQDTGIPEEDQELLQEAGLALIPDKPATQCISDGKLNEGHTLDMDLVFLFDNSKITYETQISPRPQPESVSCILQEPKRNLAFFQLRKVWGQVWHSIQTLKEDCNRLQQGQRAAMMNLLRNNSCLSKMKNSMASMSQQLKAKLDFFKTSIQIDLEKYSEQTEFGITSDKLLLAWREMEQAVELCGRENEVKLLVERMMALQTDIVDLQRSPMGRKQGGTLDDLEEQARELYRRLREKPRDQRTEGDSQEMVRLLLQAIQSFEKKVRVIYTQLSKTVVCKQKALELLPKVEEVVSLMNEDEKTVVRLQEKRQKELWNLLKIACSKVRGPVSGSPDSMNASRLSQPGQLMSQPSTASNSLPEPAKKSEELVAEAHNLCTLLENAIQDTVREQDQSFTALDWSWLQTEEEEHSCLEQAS

[11] = target: Insulin-like growth factor 1 receptor (Homo sapiens) (UniProt P08069); assay: Inhibition of IGF-1R (unknown origin) at 0.5 uM relative to control
[12] = target: Tyrosine-protein kinase ABL1 (Homo sapiens) (UniProt P00519); assay: Inhibition of Abl (unknown origin) at 0.5 uM relative to control
[13] = target: Vascular endothelial growth factor receptor 1 (Homo sapiens) (UniProt P17948); assay: Inhibition of VEGFR1 (unknown origin) at 0.5 uM relative to control
[14] = target: RAC-beta serine/threonine-protein kinase (Homo sapiens) (UniProt P31751); assay: Inhibition of PKBbeta (unknown origin) at 0.5 uM relative to control
[15] = target: Casein kinase I isoform alpha (Homo sapiens) (UniProt P48729); assay: Inhibition of CK1 (unknown origin) at 0.5 uM relative to control
[16] = target: T2, Aurora kinase A (Homo sapiens) (UniProt O14965); assay: Inhibition of Aurora A (unknown origin) at 0.5 uM relative to control
T2 sequence (whole entry): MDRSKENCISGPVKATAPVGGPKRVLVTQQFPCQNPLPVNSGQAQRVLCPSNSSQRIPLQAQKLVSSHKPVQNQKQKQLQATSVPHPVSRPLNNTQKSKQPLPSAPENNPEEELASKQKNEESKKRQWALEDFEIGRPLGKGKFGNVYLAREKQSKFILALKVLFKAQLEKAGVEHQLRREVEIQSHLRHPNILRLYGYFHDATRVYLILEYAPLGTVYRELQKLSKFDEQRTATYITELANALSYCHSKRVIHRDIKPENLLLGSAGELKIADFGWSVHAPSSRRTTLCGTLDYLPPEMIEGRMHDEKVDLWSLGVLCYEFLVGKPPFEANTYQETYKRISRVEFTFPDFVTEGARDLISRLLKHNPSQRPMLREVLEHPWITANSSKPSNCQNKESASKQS

SH-SY5Y [17] = assay: cells; settings: Homo sapiens, 24 h
SH-SY5Y [18] = assay: Neuroprotective activity against glutamate-induced neurotoxicity in human SH-SY5Y cells assessed as cell viability at 10 uM incubated for 30 mins prior to glutamate challenge measured after 24 hrs by MTT assay (reference value: 73.8 +/- 4.5%); format: functional; settings: read-out: Activity
SH-SY5Y [19] = assay: Neuroprotective activity against glutamate-induced neurotoxicity in human SH-SY5Y cells assessed as cell viability at 50 uM incubated for 30 mins prior to glutamate challenge measured after 24 hrs by MTT assay (reference value: 73.8 +/- 4.5%); format: functional; settings: read-out: Activity

Sequence of RAC-beta serine/threonine-protein kinase (Homo sapiens) (P31751 whole entry, canonical isoform): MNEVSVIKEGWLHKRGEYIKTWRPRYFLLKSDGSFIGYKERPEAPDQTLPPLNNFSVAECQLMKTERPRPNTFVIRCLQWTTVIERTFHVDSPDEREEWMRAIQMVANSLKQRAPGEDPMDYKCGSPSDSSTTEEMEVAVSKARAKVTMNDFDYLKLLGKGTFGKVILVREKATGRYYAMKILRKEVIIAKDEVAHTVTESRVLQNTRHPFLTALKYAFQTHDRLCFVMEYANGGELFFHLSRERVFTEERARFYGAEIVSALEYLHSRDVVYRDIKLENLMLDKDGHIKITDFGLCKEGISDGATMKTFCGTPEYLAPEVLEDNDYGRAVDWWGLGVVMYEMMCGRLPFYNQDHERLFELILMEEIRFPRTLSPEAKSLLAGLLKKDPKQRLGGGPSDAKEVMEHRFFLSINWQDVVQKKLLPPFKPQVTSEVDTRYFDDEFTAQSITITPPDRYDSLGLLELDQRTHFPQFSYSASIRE
Sequence of Aurora kinase B (Homo sapiens) (Q96GD4 whole entry): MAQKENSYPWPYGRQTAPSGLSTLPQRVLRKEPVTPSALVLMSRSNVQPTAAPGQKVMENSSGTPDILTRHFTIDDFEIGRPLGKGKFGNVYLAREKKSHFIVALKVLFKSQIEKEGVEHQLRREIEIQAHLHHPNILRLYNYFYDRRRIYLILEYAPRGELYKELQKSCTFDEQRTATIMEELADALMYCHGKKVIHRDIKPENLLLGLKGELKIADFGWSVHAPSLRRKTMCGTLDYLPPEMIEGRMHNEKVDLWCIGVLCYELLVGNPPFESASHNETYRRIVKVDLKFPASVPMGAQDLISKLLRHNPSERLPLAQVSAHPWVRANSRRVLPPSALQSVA
Sequence of Casein kinase I isoform alpha (Homo sapiens) (P48729 2-337 limits assumed): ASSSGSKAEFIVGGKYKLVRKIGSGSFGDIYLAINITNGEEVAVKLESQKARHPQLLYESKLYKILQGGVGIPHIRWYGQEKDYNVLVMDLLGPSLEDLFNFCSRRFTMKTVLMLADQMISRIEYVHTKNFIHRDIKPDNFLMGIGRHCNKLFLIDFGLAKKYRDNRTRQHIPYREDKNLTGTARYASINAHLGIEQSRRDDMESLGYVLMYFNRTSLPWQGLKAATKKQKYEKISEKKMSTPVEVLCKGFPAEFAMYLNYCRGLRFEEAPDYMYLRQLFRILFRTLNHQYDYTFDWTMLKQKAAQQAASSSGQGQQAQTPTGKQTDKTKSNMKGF
Sequence of Tyrosine-protein kinase ABL1 (Homo sapiens) (P00519 whole entry): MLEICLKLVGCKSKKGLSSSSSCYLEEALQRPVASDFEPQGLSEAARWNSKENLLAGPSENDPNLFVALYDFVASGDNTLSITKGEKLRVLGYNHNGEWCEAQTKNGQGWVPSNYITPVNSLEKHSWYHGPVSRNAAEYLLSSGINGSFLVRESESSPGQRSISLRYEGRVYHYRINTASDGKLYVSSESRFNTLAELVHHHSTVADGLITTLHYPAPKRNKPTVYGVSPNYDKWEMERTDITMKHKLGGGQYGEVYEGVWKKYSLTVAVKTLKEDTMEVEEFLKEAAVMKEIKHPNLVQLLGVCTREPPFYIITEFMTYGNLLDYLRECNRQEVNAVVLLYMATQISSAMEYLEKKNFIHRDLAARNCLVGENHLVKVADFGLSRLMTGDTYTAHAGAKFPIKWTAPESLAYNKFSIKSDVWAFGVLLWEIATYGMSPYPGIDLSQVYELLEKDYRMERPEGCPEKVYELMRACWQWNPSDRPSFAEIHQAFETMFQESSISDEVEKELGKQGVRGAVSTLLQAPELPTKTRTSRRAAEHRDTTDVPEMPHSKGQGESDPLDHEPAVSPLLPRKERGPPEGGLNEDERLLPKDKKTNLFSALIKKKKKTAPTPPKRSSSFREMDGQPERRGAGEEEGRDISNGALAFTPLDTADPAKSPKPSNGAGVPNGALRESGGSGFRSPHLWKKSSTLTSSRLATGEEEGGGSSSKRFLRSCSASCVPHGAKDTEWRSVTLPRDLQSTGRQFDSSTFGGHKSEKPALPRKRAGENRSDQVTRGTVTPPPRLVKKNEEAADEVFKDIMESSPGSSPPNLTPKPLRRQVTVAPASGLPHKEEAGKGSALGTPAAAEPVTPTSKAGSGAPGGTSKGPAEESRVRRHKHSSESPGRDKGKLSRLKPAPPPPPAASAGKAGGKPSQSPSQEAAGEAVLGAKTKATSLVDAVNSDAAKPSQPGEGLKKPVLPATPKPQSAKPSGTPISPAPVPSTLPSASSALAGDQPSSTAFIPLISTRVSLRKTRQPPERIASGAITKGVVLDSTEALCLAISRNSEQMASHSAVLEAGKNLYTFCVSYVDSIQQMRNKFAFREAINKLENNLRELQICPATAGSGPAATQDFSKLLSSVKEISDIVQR
Sequence of RAC-alpha serine/threonine-protein kinase (Homo sapiens) (P31749 whole entry): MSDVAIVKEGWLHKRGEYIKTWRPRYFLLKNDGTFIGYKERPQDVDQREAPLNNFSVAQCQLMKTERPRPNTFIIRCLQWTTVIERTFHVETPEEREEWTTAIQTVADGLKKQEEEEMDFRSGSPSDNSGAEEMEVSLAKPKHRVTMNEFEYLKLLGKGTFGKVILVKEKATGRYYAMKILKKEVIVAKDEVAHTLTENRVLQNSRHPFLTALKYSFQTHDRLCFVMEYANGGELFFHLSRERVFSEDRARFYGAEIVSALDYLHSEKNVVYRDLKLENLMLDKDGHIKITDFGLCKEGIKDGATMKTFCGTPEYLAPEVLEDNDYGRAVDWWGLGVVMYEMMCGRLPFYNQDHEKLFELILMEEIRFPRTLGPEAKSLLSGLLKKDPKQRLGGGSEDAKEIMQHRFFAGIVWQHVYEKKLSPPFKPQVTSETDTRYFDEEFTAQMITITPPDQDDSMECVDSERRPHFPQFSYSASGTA
Sequence of Vascular endothelial growth factor receptor 1 (Homo sapiens) (P17948 whole entry): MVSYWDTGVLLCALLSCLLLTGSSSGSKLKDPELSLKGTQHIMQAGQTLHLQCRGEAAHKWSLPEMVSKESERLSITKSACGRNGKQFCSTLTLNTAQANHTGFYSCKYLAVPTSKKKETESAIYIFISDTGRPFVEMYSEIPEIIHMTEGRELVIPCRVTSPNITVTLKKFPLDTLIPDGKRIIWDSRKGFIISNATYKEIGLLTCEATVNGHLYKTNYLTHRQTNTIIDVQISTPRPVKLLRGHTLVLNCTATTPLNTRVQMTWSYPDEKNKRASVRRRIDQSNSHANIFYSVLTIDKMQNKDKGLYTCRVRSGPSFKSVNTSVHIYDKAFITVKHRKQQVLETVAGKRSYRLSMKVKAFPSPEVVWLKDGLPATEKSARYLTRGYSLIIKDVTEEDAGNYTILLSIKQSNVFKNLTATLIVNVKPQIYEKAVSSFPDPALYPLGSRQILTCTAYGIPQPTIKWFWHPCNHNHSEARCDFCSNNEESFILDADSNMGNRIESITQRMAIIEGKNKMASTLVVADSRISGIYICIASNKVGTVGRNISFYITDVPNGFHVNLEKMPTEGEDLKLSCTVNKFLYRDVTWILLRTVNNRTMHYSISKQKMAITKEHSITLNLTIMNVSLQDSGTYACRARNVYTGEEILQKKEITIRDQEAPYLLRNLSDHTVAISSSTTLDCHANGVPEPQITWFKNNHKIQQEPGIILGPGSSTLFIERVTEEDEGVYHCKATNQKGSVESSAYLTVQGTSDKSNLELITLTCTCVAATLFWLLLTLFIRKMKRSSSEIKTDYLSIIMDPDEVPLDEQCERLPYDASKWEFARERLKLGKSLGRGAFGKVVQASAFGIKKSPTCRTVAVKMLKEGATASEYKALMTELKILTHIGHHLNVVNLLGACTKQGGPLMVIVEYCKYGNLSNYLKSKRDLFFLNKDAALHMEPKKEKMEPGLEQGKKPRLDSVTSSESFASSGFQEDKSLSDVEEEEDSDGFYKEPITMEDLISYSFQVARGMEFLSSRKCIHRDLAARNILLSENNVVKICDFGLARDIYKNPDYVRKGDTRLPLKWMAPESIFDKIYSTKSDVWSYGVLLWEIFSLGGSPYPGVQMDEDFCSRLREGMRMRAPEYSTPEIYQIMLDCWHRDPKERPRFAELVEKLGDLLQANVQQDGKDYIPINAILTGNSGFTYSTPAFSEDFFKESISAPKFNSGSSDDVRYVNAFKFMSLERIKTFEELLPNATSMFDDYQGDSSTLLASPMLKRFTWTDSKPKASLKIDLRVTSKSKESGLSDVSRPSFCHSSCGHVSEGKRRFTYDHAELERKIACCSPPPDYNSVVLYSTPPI

Row | Structure (SMILES) | viability at 24 h, 30 µM [1] [%] | further results
1 | Nc1nccc(-c2cn(C(=O)c3ccccc3)c3ccccc23)n1 | 106 | 
2 | Cc1noc(C)c1Cn1cc(-c2ccnc(N)n2)c2ccccc21 | 88.5 | inhibition [2]: 17.7%; inhibition [3]: 9.5%; inhibition [4]: 10.1%; inhibition [5]: 36.9%; inhibition [6]: 14%; inhibition [7]: 10.9%; inhibition [8]: 6.1%; inhibition [9]: 0%; inhibition [10]: 3%; inhibition [11]: 0%; inhibition [12]: 6.3%; inhibition [13]: 13.5%; inhibition [14]: 0%; inhibition [15]: 22.7%; inhibition [16]: 0%
3 | CCOc1ccccc1C(=O)n1cc(-c2ccnc(N)n2)c2ccccc21 | 46.6 | 
4 | CC(=O)Nc1ccc(S(=O)(=O)n2cc(-c3ccnc(N)n3)c3cc(Br)ccc32)cc1 | 71.6 | 
5 | O=C1NC(c2c[nH]c3ccccc23)Nc2ccccc21 (stereo not given) | 83.1 | 
6 | Nc1nccc(-c2cn(Cc3c4ccccc4cc4ccccc34)c3ccccc23)n1 | 96 | 
7 | Nc1nccc(-c2cn(S(=O)(=O)c3cccc(C(F)(F)F)c3)c3ccc(Br)cc23)n1 | 38.8 | 
8 | Cc1c(C)c(C)c(S(=O)(=O)n2cc(-c3ccnc(N)n3)c3ccccc32)c(C)c1C | 49 | 
9 | Cc1noc(C)c1Cn1cc(-c2ccnc(N)n2)c2cc(Br)ccc21 | 83.1 | 
10 | Nc1nccc(-c2cn(S(=O)(=O)c3ccc(Cl)cc3Cl)c3ccccc23)n1 | 55.4 | 
11 | Nc1nccc(-c2cn(S(=O)(=O)c3ccc4c(c3)OCCO4)c3ccccc23)n1 | 59.4 | 
12 | Nc1nccc(-c2cn(S(=O)(=O)c3ccc(Br)cc3)c3ccccc23)n1 | 91.4 | 
13 | Nc1nccc(-c2c[nH]c3ccccc23)n1 | 91.4 | inhibition [2]: 9.6%; inhibition [3]: 0%; inhibition [4]: 4.1%; inhibition [5]: 8.5%; inhibition [6]: 3.8%; inhibition [7]: 22.3%; inhibition [8]: 0%; inhibition [9]: 0%; inhibition [10]: 16.6%; inhibition [11]: 0%; inhibition [12]: 7.1%; inhibition [13]: 8%; inhibition [14]: 0%; inhibition [15]: 0%; inhibition [16]: 5.1%
14 | COc1ccc(S(=O)(=O)n2cc(-c3ccnc(N)n3)c3ccccc32)cc1 | 58.8 | 
15 | Cc1cc(C)c(S(=O)(=O)n2cc(-c3ccnc(N)n3)c3cc(Br)ccc32)c(C)c1 | 109 | 
16 | Nc1nccc(-c2cn(S(=O)(=O)c3ccc4c(c3)OCCO4)c3ccc(Br)cc23)n1 | 112 | 
17 | O=C1NC(c2c[nH]c3ccc(Br)cc23)Nc2ccccc21 (stereo not given) | 41.5 | 
18 | Nc1nccc(-c2cn(S(=O)(=O)c3ccc([N+](=O)[O-])cc3)c3ccc(Br)cc23)n1 | 59 | 
19 | N#Cc1ccc(S(=O)(=O)n2cc(-c3ccnc(N)n3)c3ccccc32)cc1 | 110 | 
20 | Nc1nccc(-c2cn(Cc3c4ccccc4cc4ccccc34)c3ccc(Br)cc23)n1 | 79.8 | 
21 | Nc1nccc(-c2c[nH]c3ccc(Br)cc23)n1 [MERIDIANIN C] | 92.9 | 
22 | Nc1nccc(-c2cn(S(=O)(=O)c3ccc(C(F)(F)F)cc3[N+](=O)[O-])c3ccc(Br)cc23)n1 | 15.2 | IC50 (SH-SY5Y [17]): 14 µM
23 | O=c1[nH]c(-c2c[nH]c3ccc(I)cc23)nc2ccccc12 | 24 | 
24 | CN1CCN(C(=O)n2cc(-c3ccnc(N)n3)c3ccccc32)CC1 | 82 | 
25 | Cc1ccsc1C(=O)n1cc(-c2ccnc(N)n2)c2ccccc21 | 82 | 
26 | Nc1nccc(-c2cn(S(=O)(=O)c3ccc4ccccc4c3)c3ccccc23)n1 | 61.6 | 

Row | Structure (SMILES) | viability at 24 h, 30 µM [1] [%] | further results
27 | CN1CCN(C(=O)n2cc(-c3ccnc(N)n3)c3cc(Br)ccc32)CC1 | 91.8 | 
28 | N#Cc1ccc(S(=O)(=O)n2cc(-c3ccnc(N)n3)c3cc(Br)ccc32)cc1 | 106 | 
29 | Nc1nccc(-c2cn(CN3C(=O)c4ccccc4C3=O)c3ccccc23)n1 | 101 | 
30 | Nc1nccc(-c2cn(S(=O)(=O)c3ccc(I)cc3)c3ccccc23)n1 | 57.5 | 
31 | CC(C)(C)c1ccc(S(=O)(=O)n2cc(-c3ccnc(N)n3)c3cc(Br)ccc32)cc1 | 109 | 
32 | Cc1c(C)c(C)c(S(=O)(=O)n2cc(-c3ccnc(N)n3)c3cc(Br)ccc32)c(C)c1C | 107 | 
33 | Nc1nccc(-c2cn(S(=O)(=O)c3cc(C(F)(F)F)cc(C(F)(F)F)c3)c3ccc(Br)cc23)n1 | 76.4 | 
34 | Nc1nccc(-c2cn(Cc3ccc(Cl)s3)c3ccc(Br)cc23)n1 | 24 | 
35 | Nc1nccc(-c2cn(S(=O)(=O)c3cccc(C(F)(F)F)c3)c3ccccc23)n1 | 76.1 | 
36 | Nc1nccc(-c2cn(C(=O)c3ccccc3)c3ccc(Br)cc23)n1 | 65.1 | IC50 (SH-SY5Y [17]): > 100 µM; viability at 10 µM (SH-SY5Y [18]): 93.2%; viability at 50 µM (SH-SY5Y [19]): 94.1%
37 | Nc1nccc(-c2cn(S(=O)(=O)c3ccc(C(F)(F)F)cc3)c3ccccc23)n1 | 95.6 | 
38 | COc1ccc(Br)cc1S(=O)(=O)n1cc(-c2ccnc(N)n2)c2ccccc21 | 96.2 | 
39 | Nc1nccc(-c2cn(S(=O)(=O)c3cc(C(F)(F)F)cc(C(F)(F)F)c3)c3ccccc23)n1 | 72.4 | 
40 | COc1ccc(S(=O)(=O)n2cc(-c3ccnc(N)n3)c3ccccc32)cc1OC | 127 | 
41 | Nc1nccc(-c2cn(Cc3ccc(Cl)s3)c3ccccc23)n1 | 115 | 
42 | Nc1nccc(-c2cn(S(=O)(=O)c3ccc(C(F)(F)F)cc3)c3ccc(Br)cc23)n1 | 85 | 
43 | CC(C)(C)c1ccc(S(=O)(=O)n2cc(-c3ccnc(N)n3)c3ccccc32)cc1 | 86.3 | 
44 | Nc1nccc(-c2cn(S(=O)(=O)c3ccc(F)cc3F)c3ccccc23)n1 | 99.1 | 
45 | Nc1nccc(-c2cn(S(=O)(=O)c3ccc(OC(F)(F)F)cc3)c3ccc(Br)cc23)n1 | 74 | 
46 | Cc1cc(C)c(S(=O)(=O)n2cc(-c3ccnc(N)n3)c3ccccc32)c(C)c1 | 40 | 
47 | COc1ccc(S(=O)(=O)n2cc(-c3ccnc(N)n3)c3cc(Br)ccc32)cc1 | 99 | 
48 | COc1cccc(C(=O)n2cc(-c3ccnc(N)n3)c3ccccc32)c1 | 94.6 | 
49 | Nc1nccc(-c2cn(S(=O)(=O)c3ccc([N+](=O)[O-])cc3)c3ccccc23)n1 | 56 | 
50 | Nc1nccc(-c2cn(C(=O)N3CCOCC3)c3ccccc23)n1 | 97.3 | 
51 | COCCn1cc(-c2ccnc(N)n2)c2cc(Br)ccc21 | 75.3 | 
